PubChem BioAssay AID1996
Converted amounts (≈) assume the structure as drawn.

Conditions: buffer; pH 7.4; 200.0 µM

| Structure (SMILES) | solubility kinetic [µg/mL] |
| --- | --- |
| O=C(NCCCn1ccnc1)c1cccc(Br)c1 | 46.2 (≈ 150 µM) |
| Cn1c(O)c(C=Nc2ccccc2)c(=O)n(C)c1=O | 24 (≈ 92.6 µM) |
| O=C(NCc1ccco1)c1ccc(NS(=O)(=O)c2cccc(F)c2)cc1 | > 56.2 |
| CN(c1ccccc1)S(=O)(=O)c1cccc(C(=O)OCC(=O)Nc2ccc(C(N)=O)cc2)c1 | 9.9 (≈ 21.2 µM) |
| CCN(CC)S(=O)(=O)c1ccc(-c2csc(C)n2)s1 | 13.6 (≈ 43 µM) |
| CCc1cccc(C)c1NC(=O)CN1C(=O)NC(CCc2ccccc2)C1=O (centres undefined) | 7.6 (≈ 20 µM) |
| S=C(NCCCN1CCOCC1)NC1CC1 | > 36.5 |
| Cc1ccc(NC(=O)OCc2cncs2)cc1 | > 37.2 |
| CC(OC(=O)c1ccccc1)C(=O)NCc1ccco1 (centres undefined) | > 41 |
| CCOC(=O)c1cc2c(ccc3nc(C)c(C)c32)[nH]c1C | < 0.3 |
| NS(=O)(=O)c1cccc(NC(=O)CSc2nnc(-c3ccccc3)o2)c1 | > 58.6 |
| O=C(Nc1ccccc1)Nc1ccno1 | > 30.5 |
| COc1ccc(OCC(=O)NCCCn2ccnc2)cc1.Cl | > 48.9 |
| COc1cccc(C(=O)Nc2cccc3c2ccc2cccn23)c1 | 1.3 (≈ 4.11 µM) |
| CN(CCc1ccccc1)Cc1c[nH]c2ccccc12.O=C(O)C(=O)O | > 53.2 |
| O=S(=O)(NCC1CCCO1)c1ccc(Cl)cc1 (centres undefined) | 25.5 (≈ 92.5 µM) |
| Cc1ccc(NC(=O)CSc2nc3sc(C)cc3c(=O)n2C)cc1 | < 0.3 |
| CCc1noc(N)c1C(=O)Nc1ccc(Cl)cc1 | > 39.9 |
| Cc1cc(NC(=O)COC(=O)CC2CCCC2)c([N+](=O)[O-])cc1C | 3 (≈ 8.97 µM) |
| CCc1nc2ccccc2n1CC1CC1(Cl)Cl (centres undefined) | 34.9 (≈ 130 µM) |

| Structure (SMILES) | solubility kinetic [µg/mL] |
| --- | --- |
| O/N=C/c1ccn(-c2ccc(Br)cc2)c1 | 2.6 (≈ 9.81 µM) |
| Cc1cc(=O)[nH]c(SC(C)C(=O)Nc2cccc3ccccc23)n1 (centres undefined) | 42.7 (≈ 126 µM) |
| COCCCn1c(=O)c2sccc2n(Cc2ccccc2)c1=O | 49.4 (≈ 150 µM) |
| COc1ccc2cc(C(=O)NCC3CCCO3)[nH]c2c1 (centres undefined) | > 41.1 |
| Cc1ccc(S(=O)(=O)N2CCC3(CC2)OCCO3)s1 | > 45.5 |
| O=S(=O)(Nc1ccncc1Cl)c1cccc(Cl)c1Cl | > 50.6 |
| c1ccc(-c2nc(-c3ccc(-c4ccon4)s3)no2)cc1 | 0.6 (≈ 2.03 µM) |
| CC(=O)N/C(=N/c1nc(C)cc(C)n1)Nc1ccc(F)cc1F | 1.6 (≈ 5.01 µM) |
| O=C1Nc2ccccc2C1C(C[N+](=O)[O-])c1ccccc1 (centres undefined) | > 42.3 |
| COC(=O)c1ccc(COc2ccc(C)cc2[N+](=O)[O-])o1 | 3.3 (≈ 11.3 µM) |
| CCOC(=O)C1CCN(C(=O)c2ccc(C)o2)CC1 | > 39.8 |
| CC1CN(C(=O)COC(=O)c2cnc(Cl)c(Cl)c2)CC(C)O1 (centres undefined) | > 52.1 |
| O=C(COC(=O)c1ccc(Cl)cc1)NC(=O)NC1CCCC1 | 5.7 (≈ 17.6 µM) |
| CCCC1(c2ccccc2)NC(=O)N(CC(=O)Nc2ccc(N3CCOCC3)cc2)C1=O (centres undefined) | > 65.5 |
| Cc1ccc(S(=O)(=O)NCc2ccccc2)s1 | > 40.1 |
| COc1ccc2cc(C(=O)C3CCCN(Cc4cccc(C)n4)C3)ccc2c1 (centres undefined) | 37.7 (≈ 101 µM) |
| O=C1CSC(c2ccccn2)N1c1ccc(C(F)(F)F)cc1 (centres undefined) | > 48.6 |
| COC(=O)c1ccccc1NC(=O)c1ccc2c(c1)CC(C)O2 (centres undefined) | 2.4 (≈ 7.71 µM) |
| CC(CCc1ccccc1)NC(=O)c1ccc(F)cc1 (centres undefined) | 33.6 (≈ 124 µM) |
| COC(=O)Cc1c(O)ccn(CCc2c[nH]c3ccc(OC)cc23)c1=O | > 53.5 |

| Structure (SMILES) | solubility kinetic [µg/mL] |
| --- | --- |
| Nc1c(Cl)ncnc1NCCc1ccc(O)cc1 | 37.1 (≈ 140 µM) |
| CCOC(=O)c1sc(=NC(=O)COc2ccccc2)n(C)c1C | 1.4 (≈ 4.19 µM) |
| COCCn1c(-c2cccs2)nc2nc3ccccc3nc21 | 39.7 (≈ 128 µM) |
| COCCCNc1nc2nonc2nc1N1CCN2CCCC2C1 (centres undefined) | > 50 |
| CC(C)Sc1ccc([N+](=O)[O-])cc1C(=O)Nc1ccncc1 | 40.8 (≈ 129 µM) |
| Cc1cccc(C)c1NC(=O)COC(=O)c1cc[n+]([O-])cc1 | > 45 |
| O=C(O)C1CCC(CNS(=O)(=O)c2ccccc2)CC1 (centres undefined) | > 44.6 |
| Cc1ccc2c(NC(=S)NC(=O)c3ccccc3)cccc2n1 | 11.3 (≈ 35.2 µM) |
| COc1ccc(C2NC(=O)NC3=C2C(=O)CCC3)cc1 (centres undefined) | > 40.8 |
| COC(=O)c1ccc(NC(=O)c2ccc3nccnc3c2)cc1 | 3.5 (≈ 11.4 µM) |
| CN(C)c1cc(-c2ccc(C#N)cc2)oc(=O)c1Cl | 2.7 (≈ 9.83 µM) |
| CC1(C)CC(=O)C2=C(C1)Nc1ccccc1NC2c1cccc(F)c1 (centres undefined) | > 50.5 |
| O=C(Nc1ccccc1)C1CC(=O)n2c(nc3ccccc32)N1 (centres undefined) | 0.9 (≈ 2.94 µM) |
| Cc1ccc(NS(=O)(=O)N2CCOCC2)c(C)c1 | > 40.6 |
| Brc1ccc2ncnc(NCc3cccnc3)c2c1 | 34.3 (≈ 109 µM) |
| CC(=O)Nc1ccc(NC(=O)c2cccc(S(=O)(=O)N3CCCCCC3)c2)cc1 | 5.3 (≈ 12.8 µM) |
| CCOC(=O)c1cc(C)n(-c2ccccc2)c1C | 3 (≈ 12.3 µM) |
| CCc1cc(C(=O)c2ccc(OC)cc2)c(NC(=O)CN2CCCC2)s1 | 5.9 (≈ 15.8 µM) |
| CN1CCCN(S(=O)(=O)c2ccccc2)CC1.Cl | 39.8 |
